{
  "source": "patent US11400102B2",
  "about": "“Treatment for bacterial infections with salicylic acid analogs” (priority 2019, dated 2022)",
  "key": {"[1]": {"test_system": "yersiniabactin", "assay": "Mutasynthesis study: incorporation of variant salicylic acids into yersiniabactin (LC-MS)", "format": "cell-based, uropathogenic E. coli (UTI89ΔybtS)", "protocol": "FIG. 11 depicts the experimental protocol for the screening assay. […] a strain of uropathogenic E. coli (UTI89ΔybtS) that cannot produce endogenous salicylic acid but can be chemically complemented with salicylic acid in growth medium. […]+1% casamino acids (CAA) and 20 μM 2′,2′-dipyridyl (DP) were added along with a variety of variant salicylic acids (Table 1) bearing different moieties on carbons 3 to 6. The amount of Ypt in the sample was then quantified using LC-MS.\nWalking around the Figure from bottom left: -LC-MS method called neutral loss, where any molecule that loses 187 mass units that are characteristic of yersiniabactin, -different metal species of yersiniabactin can be detected in the supernatant of a UTI89 culture; these have distinct retention times by liquid chromatography; confirm that the molecules contributing to this LC peak are a variant yersiniabactin with a fluorine by the mass."}, "[2]": {"test_system": "yersiniabactin production (YbtE)", "assay": "Aryl acid adenylating enzyme inhibitors: yersiniabactin production by UTI89", "format": "cell-based, E. coli UTI89", "conditions": "AAAE inhibitors", "source_text": "(§1) Restored yersiniabactin biosynthesis in a salicylate synthase deletion mutant (UTI89ΔybtS) during UTI led us to evaluate the pathway's subsequent biosynthetic enzyme—the aryl acid adenylating enzyme (AAAE) YbtE—as a drug target. UTI89ΔybtE produced no detectable yersiniabactin at 1 day, 1 week or 2 weeks following inoculation and is furthermore less virulent than wild type UTI89, as evidenced by a fewer chronically infected mice, a notable result for a non-conserved gene (FIG. 7A). We evaluated YbtE and its enterobactin pathway equivalent EntE as candidate drug targets using a series of six rationally-designed, non-hydrolyzable nucleoside AAAE inhibitors from the laboratory of Courtney Aldrich (see collaboration letter).\nTo test whether interference with the downstream adenylating enzyme, YbtE, could also affect yersiniabactin production, a series of YbtE inhibitors were applied to cultures of UTI89 and the Fe-Ybt peak ratio measured (FIG. 19). UT189 was grown overnight in medium supplemented with M63, DP and CAA and 100 μM of the tested compounds. […] Therefore, the salicylic analogs may act to inhibit YbtE, rather than YbtS, in the biosynthetic pathway to reduce overall production of yersiniabactin."}, "[3]": {"test_system": "UPEC urinary growth", "assay": "Urinary growth assay in the presence of Lcn2", "format": "cell-based, uropathogenic E. coli", "conditions": "human urine", "source_text": "Both neutrophils and epithelial cells produce and secrete the soluble protein Lipocalin 2 (Lcn2) into the urine and bladder lumen. Lcn2 binds a wide range of […] and their ferric complexes, presumably restricting their availability to bacteria (28). We used purified Lcn2, human urine specimens, and our panel of UPEC siderophore mutants to determine whether siderophore systems counteract Lcn2's presumed bacteriostatic activity. […] We further discovered that this phenotype varies between individual urines such that urinary growth is strongly enterobactin-dependent in some (“restrictive” individuals) and less so in others (“permissive” individuals). We have related this to a distinctive urinary metabolomic biomarker profile (29) in these individuals. […]\nRestored yersiniabactin biosynthesis in a salicylate synthase deletion mutant (UTI89ΔybtS) during UTI led us to evaluate the pathway's subsequent biosynthetic enzyme—the aryl acid adenylating enzyme (AAAE) YbtE—as a drug target. […] We evaluated YbtE and its enterobactin pathway equivalent EntE as candidate drug targets using a series of six rationally-designed, non-hydrolyzable nucleoside AAAE inhibitors from the laboratory of Courtney Aldrich (see collaboration letter)."}, "[4]": {"test_system": "enterobactin production (EntE)", "assay": "Aryl acid adenylating enzyme inhibitors: enterobactin production by UTI89", "format": "cell-based, E. coli UTI89", "conditions": "AAAE inhibitors", "source_text": "as §1"}, "[5]": {"test_system": "yersiniabactin biosynthesis", "assay": "Culture screen of salicylate analogs for yersiniabactin (Fe-Ybt) in UTI89 supernatant by LC-MS", "format": "cell-based, uropathogenic E. coli UTI89", "conditions": "Escherichia coli, read-out: yersiniabactin inhibition", "source_text": "While investigating in vivo Ybt production in the mouse cystitis model, we observed that a salicylate synthase-deficient uropathogen (UTI89ΔybtS) produces Ybt at near-wild type levels (FIG. 6A). We biochemically connected this phenotype to a uropathogenic ability to scavenge low level urinary salicylate (of presumed dietary origin) (31) as a yersiniabactin biosynthetic substrate. Both human and mouse urine chemically complemented UTI89ΔybtS in this manner, showing that low micromolar salicylate accesses cytoplasmic siderophore biosynthetic enzymes. […] Active compounds could be further divided into those that inhibit the yersiniabactin biosynthetic activity and those that displace the native salicylate substrate, resulting in a variant form of yersiniabactin (vYbt) containing the modified salicylate ring (see fluorinated yersiniabactin in FIG. 6D). The latter process, termed mutasynthesis, has been described for the related pyochelin siderophore system in Pseudomonas (32).\nUTI189 cultures were grown overnight in media supplemented with M63+DP+CAA and 50 μM of a salicylic acid analog. Supernatants were then examined for ferric-Ybt and the area of the MS-peak corresponding to that complex was measured. […] In many cases, a 5-fold or greater reduction was observed (FIG. 17).\nAs described in Example 10, a culture based screen of yersiniabactin biosynthetic inhibitor candidates was undertaken. The screening protocol is described in FIG. 20; E. coli were cultured in 96 well plates at 37° C. in the presence of various yersiniabactin inhibitor candidates. The yersiniabactin secretion in the media was measured using LC-MS using an internal standard (leucine encephalin). Bacterial growth, measured by optical density, was assessed for general toxicity and LC-MS quantification of enterobactin, a related but chemically and biochemically distinct, siderophore in medium at endpoint was measured for off-target activity."}, "[6]": {"test_system": "yersiniabactin production", "assay": "Yersiniabactin and intermediates (HPT, Esn) in clinical urinary E. coli isolates", "format": "cell-based", "conditions": "50 μM, FIGS. 30-33", "protocol": "The following clinical urinary E. coli isolates were chosen since they each secrete yersiniabactin: rUTI2, JMUSB64(490), JMUSB40(518), JMUSB115(530), JMUSB351(544), JMUB470(557), fCAUTI/B2 (sequence type ST131: ZZ13, ZZ15, ZZ16, ZZ18, ZZ22, and non ST131:ZZ23).\nSpecifically, HPT and escherichelin (Esn) were measured alongside the end product yersiniabactin. In addition, the production of enterobactin was measured as a counterscreen. In FIGS. 30-33, relative amounts of each analyte (HPT, Esn, Yrt) are depicted for each culture exposed to 50 μM of each inhibitor. A graph corresponding to reference UTI89 is reproduced in each figure (upper left).\nThere was negligible effect on enterobactin biosynthesis as well as less inhibition of biosynthetic precursors to yersiniabactin: HPT and HPTT. […] In this manner, HPTT/escherichelin production by E. coli may protect human hosts."}, "[7]": {"test_system": "yersiniabactin production", "assay": "Dose response of yersiniabactin production in UTI89 culture", "format": "cell-based, Uropathogenic E. coli strain UTI89", "conditions": "for EC50: Escherichia coli", "protocol": "Three biological triplicate experiments were completed wherein the % Ybt was measured relative to untreated controls (UTI189Δ189 in 70% ETOH). […] The experimental details describing how Ybt was quantified (using mass spectrometry) and how samples were prepared and treated are described in Chaturvedi, K S et al. Nature chemical biology. 8.8(2012):731-736.\nFIGS. 25 and 26 show the effect of 5-methyl salicylic acid on yersiniabactin production in an E. coli culture. In FIG. 25, a dose response curve of yersiniabactin synthesis in the presence of increasing concentrations of 5-methyl-salicylate is shown. Uropathogenic E. coli strain UTI89 were grown in low iron culture with the indicated concentrations of 5-methyl salicylate. Yersiniabactin content of culture supernatants was measured by LC-MS/MS relative to an internal standard. The EC50 was determined to be 0.89±0.10 μM. In FIG. 26 a representative mass spectra is depicted illustrating the presence of yersiniabactin fragments in untreated control (left panel) that are missing in media treated with 5-methyl salicylic acid (right panel).\nUropathogenic bacteria were again grown in low iron culture in the presence of varying concentrations of salicylic acid serivatives having different methylation positions."}, "[8]": {"test_system": "Ybt-deficient (UTI89ΔybtS) culture", "assay": "Copper toxicity and Ybt cytoprotection in Ybt-deficient culture", "conditions": "10 μM cupric sulfate", "method": "Growth was determined and expressed as total CFU ml^−1. […] For each patient, the difference in urinary and nonurinary strain growth is reported such that a positive value indicates prefential growth by the urinary isolate. In the four patients from whom multiple coincident urinary and nonurinary strains were recovered, the mean growth difference is reported. […] NS, nonsignificant, indicating P>0.05. […] Results are shown as mean±s.d.; n=3; *P<0.05, **P<0.01 and ***P<0.001."}, "[9]": {"test_system": "enterobactin production", "conditions": "FIG. 37"}, "[10]": {"test_system": "yersiniabactin production", "conditions": "FIG. 37"}},
  "note": "Entries after “also recorded” stand apart in the source; their conditions may differ. Like-named read-outs stand apart in the source and are kept apart here.",
  "data": [
    {"smiles": "O=C(O)c1c(O)ccc2ccccc12", "note": "[2-hydroxy-1-naphthoic acid]", "values": [
      {"measurement": "incorporation into variants of yersiniabactin", "setting": "[1]; listed as 2-hydroxy-1-naphoic acid", "value": "lack of incorporation"},
      {"measurement": "incorporation into variants of yersiniabactin", "setting": "[1]; listed as 2-hydroxy-1-nathoic acid", "value": "not incorporated"}
    ]},
    {"smiles": "Nc1ncnc2c1ncn2[C@@H]1O[C@H](COS(=O)(=O)NC(=O)c2cccc(O)c2O)[C@@H](O)[C@H]1O", "note": "[DHB-AMS]", "values": [
      {"measurement": "yersiniabactin production by UTI89", "setting": "[2]", "value": "completely inhibiting"},
      {"measurement": "phenotype in the urinary growth assay", "setting": "[3]", "value": "mimicked an enterobactin biosynthesis mutant phenotype"},
      {"measurement": "enterobactin production by UTI89", "setting": "[4]", "value": "completely inhibiting"}
    ]},
    {"smiles": "O=C(O)c1c(O)cccc1F", "note": "[6-fluorosalicylic acid]", "values": [
      {"measurement": "inhibition at 50 µM", "setting": "[5]", "value": "> 90", "unit": "%"},
      {"measurement": "order of yersiniabactin inhibition, most potent to least potent", "setting": "[6]", "value": "least potent"}
    ]},
    {"smiles": "Nc1ncnc2c1ncn2[C@@H]1O[C@H](COS(=O)(=O)NC(=O)c2ccccc2O)[C@@H](O)[C@H]1O", "note": "[Sal-AMS]", "values": [
      {"measurement": "yersiniabactin production by UTI89", "setting": "[2]", "value": "completely inhibiting"},
      {"measurement": "enterobactin production by UTI89", "setting": "[4]", "value": "completely inhibiting"}
    ]},
    {"smiles": "Cc1cccc(O)c1C(=O)O", "note": "[6-methylsalicylic acid]", "values": [
      {"measurement": "inhibition at 50 µM", "setting": "[5]", "value": "> 90", "unit": "%"},
      {"measurement": "yersiniabactin inhibitory activity, dose response", "setting": "[7]; low iron culture, methylated salicylic acids, FIG. 27", "value": "limited activity"}
    ]},
    {"smiles": "O=C(O)c1cc(F)ccc1O", "note": "[5-fluorosalicylic acid]", "values": [
      {"measurement": "incorporation into variants of yersiniabactin", "setting": "[1]", "value": "incorporated; also recorded: incorporation"}
    ]},
    {"smiles": "O=S(=O)([O-])[O-].[Cu+2]", "note": "[copper, cupric sulfate]", "values": [
      {"measurement": "decrease in viability", "setting": "[8]", "value": "> 3", "unit": "log CFU ml^−1"}
    ]},
    {"smiles": "COc1cc(Cc2cnc(N)nc2N)cc(OC)c1OC", "note": "[TMP, trimethoprim]", "values": [
      {"measurement": "enterobactin production", "setting": "[9]", "value": "not"},
      {"measurement": "yersiniabactin production", "setting": "[10]", "value": "markedly decrease"}
    ]},
    {"smiles": "Cc1ccc(O)c(C(=O)O)c1", "note": "[5-methylsalicylic acid]", "values": [
      {"measurement": "inhibition at 50 µM", "setting": "[5]", "value": "> 90", "unit": "%"},
      {"measurement": "order of yersiniabactin inhibition, most potent to least potent", "setting": "[6]", "value": "most potent"},
      {"measurement": "yersiniabactin expression in a variety of strains", "setting": "[6]", "value": "very effective"},
      {"measurement": "EC50", "setting": "[7]; read-out: EC50, % Ybt relative to untreated controls", "value": "~1900", "unit": "nM"},
      {"measurement": "EC50", "setting": "[7]; read-out: EIC, inhibits biosynthesis in culture", "value": "~2000", "unit": "nM"},
      {"measurement": "EC50", "setting": "[7]; UTI89, low iron culture, LC-MS/MS, FIG. 25, read-out: EC50, yersiniabactin content of culture supernatants", "value": "890 ± 100", "unit": "nM"}
    ]},
    {"smiles": "O=C(O)c1ccc(Cl)cc1O", "note": "[4-chlorosalicylic acid]", "values": [
      {"measurement": "inhibition at 50 µM", "setting": "[5]", "value": "> 90", "unit": "%"}
    ]}
  ]
}
